≈ marks a conversion by molar mass, not a printed value. Calls of active or inactive are those of the source. No cut-off for these calls is given here.
Columns and labels:
[1] = test system: Pseudomonas aeruginosa; assay: Antibacterial activity against Pseudomonas aeruginosa ATCC 10145 at 90 uM incubated for 24 hrs by microdilution assay; assay type: functional, organism-based
[2] = test system: Enterococcus faecium; assay: Antibacterial activity against Enterococcus faecium C15 incubated for 24 hrs by microdilution assay; assay type: functional
[3] = test system: Enterobacter cloacae subsp. cloacae; assay: Bactericidal activity against Enterobacter cloacae ATCC 13047 at 90 uM incubated for 24 hrs by microdilution assay; assay type: functional
[4] = test system: Acinetobacter baumannii; assay: Bactericidal activity against Acinetobacter baumannii ATCC 17978 at 90 uM incubated for 24 hrs by microdilution assay; assay type: functional, organism-based
[5] = test system: Acinetobacter baumannii; assay: Antibacterial activity against Acinetobacter baumannii ATCC 17978 at 90 uM incubated for 24 hrs by microdilution assay; assay type: functional, organism-based
[6] = test system: Staphylococcus aureus; assay: Bactericidal activity against Staphylococcus aureus ATCC 25923 at 90 uM incubated for 24 hrs by microdilution assay; assay type: functional, organism-based
[7] = test system: Enterococcus faecium; assay: Bactericidal activity against Enterococcus faecium C15 up to 86.8 uM incubated for 24 hrs by microdilution assay; assay type: functional, organism-based
[8] = test system: Staphylococcus aureus; assay: Antibacterial activity against Staphylococcus aureus ATCC 25923 incubated for 24 hrs by microdilution assay; assay type: functional
[9] = test system: Klebsiella pneumoniae; assay: Antibacterial activity against Klebsiella pneumoniae ATCC 13883 at 90 uM incubated for 24 hrs by microdilution assay; assay type: functional, organism-based
[10] = test system: Pseudomonas aeruginosa; assay: Bactericidal activity against Pseudomonas aeruginosa ATCC 10145 at 90 uM incubated for 24 hrs by microdilution assay; assay type: functional, organism-based
[11] = test system: Pseudomonas aeruginosa; assay: Antibacterial activity against Pseudomonas aeruginosa ATCC 49189 at 90 uM incubated for 24 hrs by microdilution assay; assay type: functional, organism-based
[12] = Selectivity ratio of IC50 for human HaCaT cells to IC50 for human HDF cells by CellTiter 96 aqueous one solution assay
[13] = test system: Klebsiella aerogenes; assay: Antibacterial activity against Enterobacter aerogenes ATCC 13048 at 90 uM incubated for 24 hrs by microdilution assay; assay type: functional
[14] = test system: Acinetobacter baumannii; assay: Antibacterial activity against Acinetobacter baumannii ATCC 19606 at 90 uM incubated for 24 hrs by microdilution assay; assay type: functional, organism-based; details: ATCC 19606 = CIP 70.34 = JCM 6841
[15] = test system: HaCaT; assay: Cytotoxicity against human HaCaT cells assessed as reduction in cell viability incubated for 4 days by CellTiter 96 aqueous one solution assay; assay type: cell-based; details: 96 h
[16] = test system: Staphylococcus aureus; assay: Bactericidal activity against Staphylococcus aureus ATCC 29247 up to 86.8 uM incubated for 24 hrs by microdilution assay; assay type: functional, organism-based
[17] = test system: Enterobacter cloacae subsp. cloacae; assay: Antibacterial activity against Enterobacter cloacae ATCC 13047 at 90 uM incubated for 24 hrs by microdilution assay; assay type: functional
[18] = test system: Klebsiella aerogenes; assay: Bactericidal activity against Enterobacter aerogenes ATCC 13048 at 90 uM incubated for 24 hrs by microdilution assay; assay type: functional
[19] = test system: Pseudomonas aeruginosa; assay: Bactericidal activity against Pseudomonas aeruginosa ATCC 49189 at 90 uM incubated for 24 hrs by microdilution assay; assay type: functional, organism-based
[20] = test system: Klebsiella pneumoniae; assay: Antibacterial activity against Klebsiella pneumoniae ATCC 12657 at 90 uM incubated for 24 hrs by microdilution assay; assay type: functional, organism-based
[21] = test system: Klebsiella pneumoniae; assay: Bactericidal activity against Klebsiella pneumoniae ATCC 13883 at 90 uM incubated for 24 hrs by microdilution assay; assay type: functional, organism-based
[22] = test system: NHDF; assay: Cytotoxicity against human HDF cells assessed as reduction in cell viability incubated for 7 days by CellTiter 96 aqueous one solution assay; assay type: functional, cell-based; details: 168 h
[23] = test system: Staphylococcus aureus; assay: Bactericidal activity against Staphylococcus aureus ATCC 29247 at 90 uM incubated for 24 hrs by microdilution assay; assay type: functional, organism-based
[24] = test system: Klebsiella pneumoniae; assay: Bactericidal activity against Klebsiella pneumoniae ATCC 12657 at 90 uM incubated for 24 hrs by microdilution assay; assay type: functional, organism-based
[25] = test system: Enterococcus faecium; assay: Antibacterial activity against Enterococcus faecium ATCC 35667 incubated for 24 hrs by microdilution assay; assay type: functional
[26] = test system: Acinetobacter baumannii; assay: Bactericidal activity against Acinetobacter baumannii ATCC 19606 at 90 uM incubated for 24 hrs by microdilution assay; assay type: functional, organism-based; details: ATCC 19606 = CIP 70.34 = JCM 6841
[27] = test system: Enterococcus faecium; assay: Bactericidal activity against Enterococcus faecium ATCC 35667 at 90 uM incubated for 24 hrs by microdilution assay; assay type: functional, organism-based
[28] = test system: Staphylococcus aureus; assay: Antibacterial activity against Staphylococcus aureus ATCC 29247 incubated for 24 hrs by microdilution assay; assay type: functional
[29] = test system: Staphylococcus aureus; assay: Bactericidal activity against Staphylococcus aureus ATCC 25923 up to 86.8 uM incubated for 24 hrs by microdilution assay; assay type: functional, organism-based
[30] = test system: Enterococcus faecium; assay: Bactericidal activity against Enterococcus faecium C15 at 90 uM incubated for 24 hrs by microdilution assay; assay type: functional, organism-based
[31] = test system: Enterococcus faecium; assay: Bactericidal activity against Enterococcus faecium ATCC 35667 up to 86.8 uM incubated for 24 hrs by microdilution assay; assay type: functional, organism-based
[32] = test system: NHDF; assay: Cytotoxicity against human HDF cells assessed as reduction in cell viability at 100 uM incubated for 7 days by CellTiter 96 aqueous one solution assay; assay type: functional, cell-based
[33] = test system: HaCaT; assay: Cytotoxicity against human HaCaT cells assessed as reduction in cell viability at 100 uM incubated for 4 days by CellTiter 96 aqueous one solution assay; assay type: cell-based; details: 96 h
[34] = test system: Enterococcus faecium; assay: Antibacterial activity against Enterococcus faecium C15 at 90 uM incubated for 24 hrs by microdilution assay; assay type: functional, organism-based
[35] = test system: Staphylococcus aureus; assay: Antibacterial activity against Staphylococcus aureus ATCC 25923 at 90 uM incubated for 24 hrs by microdilution assay; assay type: functional, organism-based
[36] = test system: Enterococcus faecium; assay: Antibacterial activity against Enterococcus faecium ATCC 35667 at 90 uM incubated for 24 hrs by microdilution assay; assay type: functional, organism-based
[37] = test system: Staphylococcus aureus; assay: Antibacterial activity against Staphylococcus aureus ATCC 29247 at 90 uM incubated for 24 hrs by microdilution assay; assay type: functional, organism-based
[38] = test system: Staphylococcus aureus; assay: Bactericidal activity against Staphylococcus aureus ATCC 25923 incubated for 24 hrs by microdilution assay; assay type: functional; details: ATCC 25923, 24 h
[39] = test system: Enterococcus faecium; assay: Bactericidal activity against Enterococcus faecium ATCC 35667 incubated for 24 hrs by microdilution assay; assay type: functional; details: ATCC 35667, 24 h
[40] = test system: Enterococcus faecium; assay: Bactericidal activity against Enterococcus faecium C15 incubated for 24 hrs by microdilution assay; assay type: functional; details: C15, 24 h
[41] = test system: Staphylococcus aureus; assay: Bactericidal activity against Staphylococcus aureus ATCC 29247 incubated for 24 hrs by microdilution assay; assay type: functional; details: ATCC 29247, 24 h

| Compound | Activity [1] | Activity [3] | Activity [4] | Activity [5] | Activity [6] | Activity [9] | Activity [10] | Activity [11] | Ratio IC50 [12] | Activity [13] | Activity [14] | Activity [17] | Activity [18] | Activity [19] | Activity [20] | Activity [21] | Activity [23] | Activity [24] | Activity [26] | Activity [27] | further results |
| --- | --- | --- | --- | --- | --- | --- | --- | --- | --- | --- | --- | --- | --- | --- | --- | --- | --- | --- | --- | --- | --- |
| C=C1CC[C@]2(OC1)O[C@H]1C[C@H]3[C@@H]4CC[C@H]5C[C@@H](O)C[C@@H](O[C@@H]6O[C@H](C)[C@H](O)[C@H](O)[C@H]6O)[C@]5(C)[C@H]4CC[C@]3(C)[C@H]1[C@@H]2C | inactive | inactive | inactive | inactive | inactive | inactive | inactive | inactive | 3 - 11 | inactive | inactive | inactive | inactive | inactive | inactive | inactive | inactive | inactive | inactive | inactive | MIC75 [2]: 21.7 µM (≈ 12.5 µg/mL); Activity [7]: inactive; MIC75 [8]: 5.4 µM (≈ 3.11 µg/mL); IC50 [15]: 23.9 µM; Activity [16]: inactive; IC50 [22]: 4.2 µM; MIC75 [25]: 21.7 µM (≈ 12.5 µg/mL); MIC75 [28]: 5.4 µM (≈ 3.11 µg/mL); Activity [29]: inactive; Activity [30]: inactive; Activity [31]: inactive |
| C[C@@H]1CC[C@]2(OC1)O[C@H]1C[C@H]3[C@@H]4CC[C@H]5C[C@@H](O)C[C@@H](O[C@@H]6OC[C@H](O)[C@H](O)[C@H]6O)[C@]5(C)[C@H]4CC[C@]3(C)[C@H]1[C@@H]2C | inactive | inactive | inactive | inactive | inactive | inactive | inactive | inactive | 3 - 11 | inactive | inactive | inactive | inactive | inactive | inactive | inactive | inactive | inactive | inactive | inactive | Activity [32]: inactive; Activity [33]: Not Active; Activity [34]: inactive; Activity [35]: inactive; Activity [36]: inactive; Activity [37]: inactive; Activity [30]: inactive |
| C[C@@H]1CC[C@]2(OC1)O[C@H]1C[C@H]3[C@@H]4CC[C@H]5C[C@@H](O)C[C@@H](O[C@@H]6O[C@H](C)[C@H](O)[C@H](O)[C@H]6O)[C@]5(C)[C@H]4CC[C@]3(C)[C@H]1[C@@H]2C | inactive | inactive | inactive | inactive | – | inactive | inactive | inactive | 3 - 11 | inactive | inactive | inactive | inactive | inactive | inactive | inactive | – | inactive | inactive | – | MBC [38]: 21.6 µM (≈ 12.5 µg/mL); MIC75 [2]: 21.6 µM (≈ 12.5 µg/mL); MBC [39]: 43.2 µM (≈ 25 µg/mL); MIC75 [8]: 21.6 µM (≈ 12.5 µg/mL); IC50 [15]: 18.2 µM; MBC [40]: 43.2 µM (≈ 25 µg/mL); IC50 [22]: 4.3 µM; MIC75 [25]: 21.6 µM (≈ 12.5 µg/mL); MIC75 [28]: 21.6 µM (≈ 12.5 µg/mL); MBC [41]: 21.6 µM (≈ 12.5 µg/mL) |
| C=C1CC[C@]2(OC1)O[C@H]1C[C@H]3[C@@H]4CC[C@H]5C[C@@H](O)C[C@@H](O[C@@H]6OC[C@H](O)[C@H](O)[C@H]6O)[C@]5(C)[C@H]4CC[C@]3(C)[C@H]1[C@@H]2C | inactive | inactive | inactive | inactive | inactive | inactive | inactive | inactive | 3 - 11 | inactive | inactive | inactive | inactive | inactive | inactive | inactive | inactive | inactive | inactive | inactive | Activity [32]: inactive; Activity [33]: Not Active; Activity [34]: inactive; Activity [35]: inactive; Activity [36]: inactive; Activity [37]: inactive; Activity [30]: inactive |

Reference: ChEMBL document CHEMBL4414613, “Antibacterial 5α-Spirostane Saponins from the Fruit of Cordyline manners-suttoniae” (J Nat Prod, 2019)
